Assay [1] has as its system MMP-1 (collagenase-1) and MMP-9 (gelatinase B). Description: In-vivo zymography of mesentery with fluorogenic substrate. Details: species or system rat. The conditions noted are these: EDTA 5 mM applied to mesentery. How it is done:
Measurement of MMP-1,9 activity was obtained by superfusion of the mesentery with fluorogenic substrate (0.5 μmol/L; catalogue number D2293, Sigma-Aldrich Inc., St. Louis, Mo.) added to the suffusate. The substrate was cleaved by MMP-1 (collagenase-1) and MMP-9 (gelatinase B). The mesentery was loaded with substrate 10 minutes prior to image collection and continuously suffused with substrate throughout the experiment. The associated fluorescence was visualized by epi-illumination at 280 nm passing through a 340 nm emission filter on a fluorescent intravital microscope (Leica), and recorded digitally for measurement of fluorescent intensity. Light intensity of the emitted fluorescent light was recorded in digital units (1-256) after subtraction of background intensity in the absence of the tissue with standardized microscope settings. Reproducibility of these measurements as determined by repeated measurements on the same specimen was within 3%.

The nature of assay [2]: WKY and SHR central hemodynamics (arterial blood pressure via femoral artery catheter, heart rate) after chronic doxycycline. The class given is in vivo, rat. The note with it: for Mean Blood Pressure: doxycycline 55 mg/liter in drinking water (~5.4 mg/kg/day); for Diastolic Blood Pressure / Heart Rate / Systolic Blood Pressure: doxycycline in drinking water; for Mean Arterial Blood Pressure during Chronic MMP Inhibition: after MMP inhibition for 12 weeks, age 30 weeks. How it is done: Selected WKY and SHR were treated with doxycycline (55 mg/liter in drinking water, average consumption ˜5.4 mg/kg/day, West-Ward Pharmaceutical Corp., Eatontown, N.J.) for a period of 24 weeks. It should be noted that lower and higher concentrations are also effective. A range of effective does of about 1.0-20.0 mg/kg/day, resulting from the dissolution of about 5.5-220 mg of an MMP inhibitor per liter, may also be used to produce an effective result. Narrower ranges of MMP solute may also be used, for example, 75-180 mg, and 100 mg-150 mg. The ileocecal portion of the mesentery was prepared as described in Delano and Schmid-Schonbein, “The Glucocorticoid and Mineralocorticoid Receptor Distribution in a Microvascular Network of the Spontaneously Hypertensive Rat.” Briefly, arterial blood pressure was recorded via a femoral artery catheter. Individual sectors of mesentery were exposed via an abdominal midline incision while superfused with Krebs-Henseleit buffer (37° C., pH=7.4). The blood pressure of WKY and SHR was reduced by doxycycline treatment as shown below in Table 1, a trend that was detectable in terms of systolic, diastolic or mean blood pressure. […] In another experiment, and in order to explore the utility of chronic protease inhibition, a group of mature normotensive Wistar Kyoto rats (as well as a cohort of spontaneously hypertensive rats) were treated with a broad acting metafloproteases inhibitor (doxycycline, 55 mg/liter in drinking water, average consumption ˜5.4 mg/kg/day) over a period of 12 weeks until the age of 30 weeks.

The nature of assay [3]: Blood cell counts (hematocrit, total leukocyte count). The class given is in vivo, rat. The conditions noted are these: for Leukocyte Count: doxycycline in drinking water. How it is done:
Selected WKY and SHR were treated with doxycycline (55 mg/liter in drinking water, average consumption ˜5.4 mg/kg/day, West-Ward Pharmaceutical Corp., Eatontown, N.J.) for a period of 24 weeks. It should be noted that lower and higher concentrations are also effective. A range of effective does of about 1.0-20.0 mg/kg/day, resulting from the dissolution of about 5.5-220 mg of an MMP inhibitor per liter, may also be used to produce an effective result. Narrower ranges of MMP solute may also be used, for example, 75-180 mg, and 100 mg-150 mg. Fresh leukocytes were fixed on a blood smear in whole blood (using heparin as anticoagulant, 10 U/ml) with formalin solution and […] (10%, neutral buffered, 1 hr). Total leukocyte count was determined with a hemocytometer, and hematocrit was centrifuged in microhematocrit tubes. Neutrophils were separated in a density gradient (Histopaque-1077, Sigma Aldrich, spun at 42 g for 5 min).

Assay [4] has as its system plasma proteases (metallo-, serine, acid and sulfhydryl proteases). Description: Plasma protease activity (fluorescent protease assay kit, Enzchek). The note with it: after MMP inhibition for 12 weeks, age 30 weeks. Type of assay: in vivo, rat. The procedure: Fresh plasma samples were frozen (−60 C) until measurements were taken. On the day of the experiment, the samples were unfrozen and tested simultaneously for overall protease activity with fluorescent protease assay kit (Enzchek, Cat #E-6638, Molecular Probes). The substrate was cleaved by a range of proteases (metallo-, serine, acid and sulfhydryl proteases). Protease activity was determined from fluorescent intensity after peptide cleavage (in fluorescent units). In another experiment, and in order to explore the utility of chronic protease inhibition, a group of mature normotensive Wistar Kyoto rats (as well as a cohort of spontaneously hypertensive rats) were treated with a broad acting metafloproteases inhibitor (doxycycline, 55 mg/liter in drinking water, average consumption ˜5.4 mg/kg/day) over a period of 12 weeks until the age of 30 weeks.

Assay [5] deals with apoptotic cells in thymus, kidney, skeletal muscle. Description: Apoptosis by TUNEL / propidium iodide labeling of frozen tissue sections. Type of assay: in vivo, rat. The note with it: chronic doxycycline; for Fraction Of Apoptotic Cells, Thymus: tissue area of 10,000 μm^2. The procedure:
A subsequent study was performed to consider the reduction of cell apoptosis after chronic MMP inhibition. In addition to the dramatic reduction of blood pressure, free radical production, membrane receptor cleavage and other pathophysiological parameters (described elsewhere) that point towards organ injury in the SHR, cell apoptosis was also considered after MMP inhibition. […] For this purpose, a novel digital technique was introduced to determine nuclear fragmentation on freshly-harvested frozen tissue sections labeled for DNA breaks with the TUNEL technique and with propidium iodide (PI) for the detection of cell nuclei (see FIG. 9). […] PI-positive nuclei (B) are used to identify the total number of cells in the fields. Their image is superimposed on the bright field image of TUNEL-positive nuclei (dark brown color in A) to determine digitally the light absorption due to the TUNEL label (shown in green in panels C) and the level of apoptosis (C).

Assay [6] can be described thus: Thymus weight normalized to body weight. The class given is in vivo, rat. The note with it: chronic doxycycline, n = 5. An excerpt: The reduced apoptosis in the thymus by MMP blockade is also confirmed by direct measurements of the organ weight (shown in Table 6).

For the compound `O=C(O)CN(CCN(CC(=O)O)CC(=O)O)CC(=O)O` [EDTA, ethylenediaminetetraacetic acid], the “Fluorescent intensity generated by the fluorogenic substrate” value in assay [1] is reported as “undetectable”.

In the case of `C[C@H]1c2cccc(O)c2C(=O)C2=C(O)[C@]3(O)C(=O)C(C(N)=O)=C(O)[C@@H](N(C)C)[C@@H]3[C@@H](O)[C@@H]21` [doxycycline], the “Mean Blood Pressure” value in assay [2] (SHR, n = 7) was 126.3 ± 13.5 mmHg; in assay [2] (WKY rats, n = 6), 95.7 ± 8.5 mmHg. Moreover, the figures for the “Diastolic Blood Pressure” value in assay [2] (SHR) and in assay [2] (WKY rats) were 99.4 ± 17.3 mmHg and 77.4 ± 6.8 mmHg, respectively. For the same compound, the entries for the “Heart Rate” value in assay [2] (SHR) and in assay [2] (WKY rats) were 398 ± 60 beats/min and 364 ± 30 beats/min, respectively. The figures for the “Systolic Blood Pressure” value in assay [2] (SHR) and in assay [2] (WKY rats) were 161.9 ± 14.5 mmHg and 125.3 ± 10.6 mmHg, respectively. The results for the “Mean Arterial Blood Pressure during Chronic MMP Inhibition” value in assay [2] (Spontaneously Hypertensive rat) and in assay [2] (Wistar Kyoto rat) were 126.3 ± 13.5 mmHg and 95.7 ± 8.5 mmHg, respectively. Further, the “Arterial pressure after treatment, relative to the Wistar rat” value in assay [2] (WKY rats, Wistar rat about 105 mmHg) is recorded as under 105 mmHg. Moreover, the “Leukocyte count after treatment as share of its usually high count” value in assay [3] (SHR group) is recorded as “less than 50%”. The “Leukocyte Count” value in assay [3] (SHR) is reported as 2532 ± 574; in assay [3] (WKY rats) it was 2737 ± 272*, **. The entries for the “Plasma Protease Activity During Chronic MMP Inhibition” value in assay [4] (Spontaneously Hypertensive rat) and in assay [4] (Wistar Kyoto rat) were 472 ± 24 FU and 413 ± 40 FU, respectively. Moreover, the figures for the “Fraction Of Apoptotic Cells, Kidney” value in assay [5] (SHR) and in assay [5] (WKY) were 12.8 ± 5.2% and 5.1 ± 3.5%, respectively. Also, the “Fraction Of Apoptotic Cells, Skeletal muscle” value amounted to 1.7 ± 2.4 % in assay [5] (SHR) and 1.4 ± 1.3% in assay [5] (WKY). Also, the results for the “Fraction Of Apoptotic Cells, Thymus” value in assay [5] (SHR) and in assay [5] (WKY) were 13.8 ± 9.1 % and 4.7 ± 3.0%, respectively. Also, the “Thymus Weight Normalized With Respect To Body Weight” value in assay [6] (SHR) was found to be 87.4 ± 3.3 mg/100 g body wt; in assay [6] (WKY), 81.4 ± 7.4 mg/100 g body wt.
